Laboratory results taken from patent publication US12649750B2, “Macrocyclic compounds, compositions, and methods of using thereof” (Sionna Therapeutics Inc., priority 2022, dated 2026).

Assays:
NBD1 = molecular target: T1, NBD1 (Homo sapiens, UniProt P13569); test: Aggregation analysis using differential static light scattering (DSLS), thermal stability of NBD1 (ΔTagg); format: binding; details: ΔTagg versus DMSO control, NBD1 0.2 mg/ml
T1 construct: Purified recombinant NBD1 was produced using previously described methods; made in house
T1 sequence (P13569 423-646 limits assumed): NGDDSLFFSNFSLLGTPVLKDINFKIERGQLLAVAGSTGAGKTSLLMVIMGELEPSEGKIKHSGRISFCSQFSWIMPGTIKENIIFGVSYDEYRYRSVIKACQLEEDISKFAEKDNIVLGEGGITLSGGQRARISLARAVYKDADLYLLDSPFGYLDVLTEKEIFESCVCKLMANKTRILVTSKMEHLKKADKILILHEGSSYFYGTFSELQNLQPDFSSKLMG
Outline: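 Purified recombinant NBD1 at 0.2 mg/ml in 50 mM Tris-HCl, 150 mM NaCl, 5 mM MgCl2, 2 mM ATP, 2 mM DTT, pH 7.6, 1% glycerol, with compound, heated 1° C./min to 70° C. under light-scattering monitoring. Tagg taken at curve inflection; ΔTagg is compound Tagg minus mean DMSO-control Tagg, binned A (≤5° C.), B (>5-≤10° C.), C (>10-≤25° C.).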

CFTR = molecular target: T2, CFTR (Homo sapiens, UniProt P13569, DEL508-508); test: TECC24 AUC fold over DMSO @10 μM, CFTR-mediated transepithelial chloride transport in CF-HBE cells; format: cell-based; details: test agent AUC divided by DMSO vehicle AUC, primary CF-HBE cells, ΔF508 homozygous donor, 48 hours incubation
T2 construct: Primary human bronchial epithelial cells from a ΔF508 homozygous CF donor; host or cells: primary human bronchial epithelial cells (CF-HBE), ΔF508 homozygous donor
T2 sequence (P13569 with tags, fused parts or gaps DEL508-508): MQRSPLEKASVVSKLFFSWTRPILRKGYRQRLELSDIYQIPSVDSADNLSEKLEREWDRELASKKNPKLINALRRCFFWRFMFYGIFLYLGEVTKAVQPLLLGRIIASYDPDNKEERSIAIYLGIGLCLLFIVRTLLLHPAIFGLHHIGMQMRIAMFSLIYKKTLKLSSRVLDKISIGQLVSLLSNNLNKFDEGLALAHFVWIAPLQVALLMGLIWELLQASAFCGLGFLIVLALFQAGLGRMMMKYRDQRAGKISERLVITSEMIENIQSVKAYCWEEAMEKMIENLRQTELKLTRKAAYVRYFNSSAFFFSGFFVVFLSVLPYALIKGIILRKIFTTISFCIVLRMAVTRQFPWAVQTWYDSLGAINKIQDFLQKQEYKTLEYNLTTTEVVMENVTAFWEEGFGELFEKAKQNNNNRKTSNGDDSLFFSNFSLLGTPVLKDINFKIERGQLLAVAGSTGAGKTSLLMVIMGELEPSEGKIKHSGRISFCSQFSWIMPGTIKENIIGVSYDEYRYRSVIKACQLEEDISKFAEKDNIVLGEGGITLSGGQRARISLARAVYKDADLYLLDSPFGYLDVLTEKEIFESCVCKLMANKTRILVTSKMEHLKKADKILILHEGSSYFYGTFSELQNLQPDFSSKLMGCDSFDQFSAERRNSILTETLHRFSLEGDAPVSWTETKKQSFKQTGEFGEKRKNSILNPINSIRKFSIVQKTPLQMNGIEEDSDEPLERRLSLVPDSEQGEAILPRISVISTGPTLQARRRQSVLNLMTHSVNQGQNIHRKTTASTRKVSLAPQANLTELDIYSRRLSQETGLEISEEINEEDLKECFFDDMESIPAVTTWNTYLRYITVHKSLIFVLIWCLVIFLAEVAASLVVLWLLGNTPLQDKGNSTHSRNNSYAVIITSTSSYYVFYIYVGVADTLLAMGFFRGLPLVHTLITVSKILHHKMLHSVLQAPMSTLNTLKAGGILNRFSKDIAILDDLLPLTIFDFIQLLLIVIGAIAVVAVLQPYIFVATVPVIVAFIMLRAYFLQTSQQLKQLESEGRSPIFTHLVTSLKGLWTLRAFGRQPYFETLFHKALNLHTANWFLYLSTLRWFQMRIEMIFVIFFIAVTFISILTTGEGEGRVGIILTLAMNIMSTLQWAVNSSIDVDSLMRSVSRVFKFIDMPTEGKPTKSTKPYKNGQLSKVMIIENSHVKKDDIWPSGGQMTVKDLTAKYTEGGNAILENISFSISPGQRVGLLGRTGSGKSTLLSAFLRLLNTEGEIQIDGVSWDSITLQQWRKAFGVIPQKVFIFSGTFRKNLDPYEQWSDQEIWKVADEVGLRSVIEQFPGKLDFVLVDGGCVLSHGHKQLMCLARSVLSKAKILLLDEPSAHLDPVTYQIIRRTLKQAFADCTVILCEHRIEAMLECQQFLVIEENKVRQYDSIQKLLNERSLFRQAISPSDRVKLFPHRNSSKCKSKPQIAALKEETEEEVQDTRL
Outline: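 ΔF508-homozygous primary bronchial epithelial cells incubated 48 h at 36.5° C with compound (10 μM) in IL-13-containing medium, then TECC24 current-clamp recording in pH 7.4 Hepes saline with benzamil 10 μM, forskolin 10 μM, then CFTR inhibitor-172 20 μM. Equivalent Cl− current AUC between forskolin and inhibitor, expressed as fold over DMSO.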

Compound	DSLS 3D (100 μM ΔT) (NBD1)	TECC (AUC, 10 μM) (CFTR)
C[C@H](Cc1cccc([C@@]2(C)CCCC(C)(C)CS(=O)(=O)CCc3c(c(F)c(F)c4[nH]ccc34)Oc3ccc(F)c(c3)-c3nc2nn3C)c1)C(=O)O [Compound 200, (2R)-2-methyl-3-[3-[(6R)-21,22,28-trifluoro-3,6,10,10-tetramethyl-12,12-dioxo-24-oxa-12λ6-thia-3,4,19,30-tetrazapentacyclo[23.3.1.12,5.015,23.016,20]triaconta-1(29),2(30),4,15,17,20,22,25,27-nonaen-6-yl]phenyl]propanoic acid]	C (a value greater than 10 °C and less than or equal to 25 °C is marked “C”)	C (a value between 20 and 80 is marked “C”)
C[C@H](Cc1cccc([C@@]2(C)CCCC(C)(C)CS(=O)(=O)CCc3c(c(F)cc4[nH]ccc34)Oc3cncc(c3)-c3nc2nn3C)c1)C(=O)O [Compound 202, (2R)-3-[3-[(6R)-22-fluoro-3,6,10,10-tetramethyl-12,12-dioxo-24-oxa-12λ6-thia-3,4,19,27,30-pentazapentacyclo[23.3.1.12,5.015,23.016,20]triaconta-1(29),2(30),4,15,17,20,22,25,27-nonaen-6-yl]phenyl]-2-methyl-propanoic Acid]	C (a value greater than 10 °C and less than or equal to 25 °C is marked “C”)	C (a value between 20 and 80 is marked “C”)
C[C@H](Cc1cccc([C@@]2(C)CCCC(C)(C)CS(=O)(=O)CCc3c(c(F)c(F)c4[nH]ccc34)Oc3ccnc(c3)-c3nc2nn3C)c1)C(=O)O [Compound 221, (2R)-3-[3-[(6R)-21,22-difluoro-3,6,10,10-tetramethyl-12,12-dioxo-24-oxa-12λ6-thia-3,4,19,28,30-pentazapentacyclo[23.3.1.12,5.015,23.016,20]triaconta-1(29),2(30),4,15,17,20,22,25,27-nonaen-6-yl]phenyl]-2-methyl-propanoic Acid]	C (a value greater than 10 °C and less than or equal to 25 °C is marked “C”)	B (a value between 12-20 is marked “B”)
Cn1nc2nc1-c1cc(ccn1)Oc1c(F)cc3[nH]ccc3c1CCS(=O)(=O)CC(C)(C)CCC[C@]2(C)c1cccc(CC(=O)O)c1 [Compound 226, 2-[3-[(6R)-22-Fluoro-3,6,10,10-tetramethyl-12,12-dioxo-24-oxa-12λ6-thia-3,4,19,28,30-pentazapentacyclo[23.3.1.12,5.015,23.016,20]triaconta-1(29),2(30),4,15,17,20,22,25,27-nonaen-6-yl]phenyl]acetic Acid]	C (a value greater than 10 °C and less than or equal to 25 °C is marked “C”)	C (a value between 20 and 80 is marked “C”)
Cn1nc2nc1-c1cc(ccn1)Oc1c(F)cc3[nH]ccc3c1CCS(=O)(=O)CC(C)(C)CCC[C@]2(C)c1cccc(CCO)c1 [Compound 227, 2-[3-[(6R)-22-Fluoro-3,6,10,10-tetramethyl-12,12-dioxo-24-oxa-12λ6-thia-3,4,19,28,30-pentazapentacyclo[23.3.1.12,5.015,23.016,20]triaconta-1(29),2(30),4,15,17,20,22,25,27-nonaen-6-yl]phenyl]ethanol]	C (a value greater than 10 °C and less than or equal to 25 °C is marked “C”)	B (a value between 12-20 is marked “B”)
C[C@@H](Cc1cccc([C@@]2(C)CCCC(C)(C)CS(=O)(=O)CCc3c(c(F)cc4[nH]ccc34)[S+]([O-])c3ccnc(c3)-c3nc2co3)c1)C(=O)O (stereo partly drawn) [Compound 229, (2S)-3-[3-[(6R)-22-Fluoro-6,10,10-trimethyl-12,12,24-trioxo-3-oxa-12λ6,24λ4-dithia-19,28,30-triazapentacyclo[23.3.1.12,5.015,23.016,20]triaconta-1(29),2(30),4,15,17,20,22,25,27-nonaen-6-yl]phenyl]-2-methyl-propanoic Acid]	C (a value greater than 10 °C and less than or equal to 25 °C is marked “C”)	C (a value between 20 and 80 is marked “C”)
C[C@H](Cc1cccc([C@@]2(C)CCCC(C)(C)CS(=O)(=O)CCc3c(c(F)cc4[nH]ccc34)[S+]([O-])c3ccnc(c3)-c3nc2nn3C)c1)C(=O)O (stereo partly drawn) [Compound 231, (2R)-3-[3-[(6R)-22-Fluoro-3,6,10,10-tetramethyl-12,12,24-trioxo-12λ6,24λ4-dithia-3,4,19,28,30-pentazapentacyclo[23.3.1.12,5.015,23.016,20]triaconta-1(29),2(30),4,15,17,20,22,25,27-nonaen-6-yl]phenyl]-2-methyl-propanoic Acid]	C (a value greater than 10 °C and less than or equal to 25 °C is marked “C”)	C (a value between 20 and 80 is marked “C”)
C[C@@H](Cc1cccc([C@@]2(C)CCCC(C)(C)CS(=O)(=O)CCc3c(c(F)cc4[nH]ccc34)Cc3ccnc(c3)-c3nc2nn3C)c1)C(=O)O [Compound 233, (2S)-3-[3-[(6R)-22-Fluoro-3,6,10,10-tetramethyl-12,12-dioxo-12λ6-thia-3,4,19,28,30-pentazapentacyclo[23.3.1.12,5.015,23.016,20]triaconta-1(29),2(30),4,15,17,20,22,25,27-nonaen-6-yl]phenyl]-2-methyl-propanoic Acid]	C (a value greater than 10 °C and less than or equal to 25 °C is marked “C”)	B (a value between 12-20 is marked “B”)
C[C@H](Cc1cccc([C@@]2(C)CCCC(C)(C)CS(=O)(=O)CCc3c(c(F)cc4[nH]ccc34)Cc3ccnc(c3)-c3nc2nn3C)c1)C(=O)O [Compound 234, (2R)-3-[3-[(6R)-22-fluoro-3,6,10,10-tetramethyl-12,12-dioxo-12λ6-thia-3,4,19,28,30-pentazapentacyclo[23.3.1.12,5.015,23.016,20]triaconta-1(29),2(30),4,15,17,20,22,25,27-nonaen-6-yl]phenyl]-2-methyl-propanoic Acid]	C (a value greater than 10 °C and less than or equal to 25 °C is marked “C”)	B (a value between 12-20 is marked “B”)
Cn1nc2nc1-c1cc(ccn1)C(=O)c1c(F)cc3[nH]ccc3c1CCS(=O)(=O)CC(C)(C)CCC[C@]2(C)c1cccc(CCC(=O)O)c1 [Compound 238, 3-[3-[(6R)-22-fluoro-3,6,10,10-tetramethyl-12,12,24-trioxo-12λ6-thia-3,4,19,28,30-pentazapentacyclo[23.3.1.12,5.015,23.016,20]triaconta-1(29),2(30),4,15,17,20,22,25,27-nonaen-6-yl]phenyl]propanoic acid]	C (a value greater than 10 °C and less than or equal to 25 °C is marked “C”)	A (a TECC value less than 12 is marked “A”)
C[C@@H](Cc1cccc([C@@]2(C)CCCC(C)(C)CS(=O)(=O)CCc3c(c(F)cc4[nH]ccc34)Sc3ccc(F)c(c3)-c3nc2cs3)c1)C(=O)O [Compound 240, (2S)-3-[3-[(6R)-22,28-difluoro-6,10,10-trimethyl-12,12-dioxo-3,12λ6,24-trithia-19,30-diazapentacyclo[23.3.1.12,5.015,23.016,20]triaconta-1(29),2(30),4,15,17,20,22,25,27-nonaen-6-yl]phenyl]-2-methyl-propanoic Acid]	B (a value above 5 °C and less than or equal to 10 °C is marked “B”)	A (a TECC value less than 12 is marked “A”)
